The record followed here is patent US10138255B2, “Piperazine derivatives as HIV protease inhibitors” (Merck Sharp & Dohme Corp., priority 2014, dated 2018).

The test system of this assay is HIV-1 (H9IIIB strain). The assay can be described thus: Cell-Based HIV Infection Assay Using a Reporter (MT4-GFP cells). The settings on record: MT4-GFP cells infected with HIV-1 H9IIIB, 50% normal human serum, mean of at least two independent experiments, read-out: Cell Based IP (50% NHS). The essentials: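 MT4-GFP cells (HIV LTR-driven GFP) bulk-infected with HIV-1 H9IIIB at low MOI for 24 h, washed, then exposed to compounds in RPMI plus 50% normal human serum, 0.4% DMSO. Infected cells counted at 24 and 48 h; R0 = 48 h/24 h ratio, inhibition normalised to DMSO and triple-drug control; IP from 4-parameter fit.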

Setting [1] is: Human immunodeficiency virus 1, inflection point (IP) of viral growth inhibition.

Read-outs that look alike come from different tables or passages of the source.

As for `COC(=O)N[C@H](C(=O)Nc1cccc(F)c1CC[C@H]1CN[C@@H]2CCCS(=O)(=O)N1C2)[C@@H](c1ccc(F)cc1)[C@H]1CC[C@H](OC)CC1` [Example 117, methyl [(1S)-2-[(2-{2-[(6R,9S)-2,2-dioxido-2-thia-1,7-diazabicyclo[4.3.1]dec-9-yl]ethyl}-3-fluorophenyl)amino]-1-{(R)-(4-fluorophenyl)[(1r,4R)-4-methoxycyclohexyl]methyl}-2-oxoethyl]carbamate], the EC50 under setting [1] stood at 5 nM. Turning to `CO[C@H]1CC[C@H]([C@H](c2ccc(F)cc2)[C@H](N)C(=O)Nc2cccc(F)c2CC[C@H]2CN[C@@H]3CCCS(=O)(=O)N2C3)CC1` [Example 118, (βR)-N-(2-{2-[(6R,9S)-2,2-dioxido-2-thia-1,7-diazabicyclo[4.3.1]dec-9-yl]ethyl}-3-fluorophenyl)-4-fluoro-β-[(1r,4R)-4-methoxycyclohexyl]-L-phenylalaninamide], the EC50 under setting [1] amounted to 7.5 nM.

In the case of `COC(=O)N[C@H](C(=O)Nc1cccc(F)c1CC[C@H]1CN[C@@H]2CCCS(=O)(=O)N1C2)[C@@H](c1ccc(Cl)cc1)C1C[C@@H](C)O[C@@H](C)C1` (stereo partly drawn) [Example 120, methyl {(1S,2R)-2-(4-chlorophenyl)-2-[(2R,4r,6S)-2,6-dimethyltetrahydro-2H-pyran-4-yl]-1-[(2-{2-[(6R,9S)-2,2-dioxido-2-thia-1,7-diazabicyclo[4.3.1]dec-9-yl]ethyl}-3-fluorophenyl)carbamoyl]ethyl}carbamate], the EC50 (inflection point (IP) of viral growth inhibition) is given as 6.2 nM. Consider `C[C@@H]1C[C@H]([C@H](c2ccc(Cl)cc2)[C@H](N)C(=O)Nc2cccc(F)c2CC[C@H]2CN[C@@H]3CCCS(=O)(=O)N2C3)C[C@H](C)O1` [Example 121, (βR)-4-chloro-β-[(2R,4r,6S)-2,6-dimethyltetrahydro-2H-pyran-4-yl]-N-(2-{2-[(6R,9S)-2,2-dioxido-2-thia-1,7-diazabicyclo[4.3.1]dec-9-yl]ethyl}-3-fluorophenyl)-L-phenylalaninamide], for which, under setting [1], the EC50 amounted to 5.7 nM.

As for `COC(=O)N[C@H](C(=O)Nc1cccc(F)c1CCC1CNC2CCCS(=O)(=O)N1C2)[C@@H](c1ccc(Cl)cc1)c1ccnc(OC(C)C)c1` (stereo partly drawn) [Example 122, methyl {(1S,2S)-2-(4-chlorophenyl)-1-({2-[2-(2,2-dioxido-2-thia-1,7-diazabicyclo[4.3.1]dec-9-yl)ethyl]-3-fluorophenyl}carbamoyl)-2-[2-(1-methylethoxy)pyridin-4-yl]ethyl}carbamate], under setting [1], the EC50 came to 6.7 nM.

In the case of `COC(=O)N[C@H](C(=O)Nc1cccc(F)c1CC[C@H]1CN[C@@H]2CCCS(=O)(=O)N1C2)[C@]1(c2ccc(Cl)cc2)CC[C@H](OC)CC1` [Example 125, methyl {(1S)-1-[cis-1-(4-chlorophenyl)-4-methoxycyclohexyl]-2-[(2-{2-[(6R,9S)-2,2-dioxido-2-thia-1,7-diazabicyclo[4.3.1]dec-9-yl]ethyl}-3-fluorophenyl)amino]-2-oxoethyl}carbamate], the EC50 under setting [1] was 71 nM. Turning to `CO[C@H]1CC[C@@](c2ccc(Cl)cc2)([C@H](N)C(=O)Nc2cccc(F)c2CC[C@H]2CN[C@@H]3CCCS(=O)(=O)N2C3)CC1` [Example 126, (2S)-2-amino-2-[cis-1-(4-chlorophenyl)-4-methoxycyclohexyl]-N-(2-{2-[(6R,9S)-2,2-dioxido-2-thia-1,7-diazabicyclo[4.3.1]dec-9-yl]ethyl}-3-fluorophenyl)ethanamide], under setting [1], the EC50 stood at 610 nM. For the molecule `CC1(C)C[C@@H]([C@H](c2ccc(Cl)cc2)[C@H](N)C(=O)N[C@H]2CCCC[C@@H]2CC[C@H]2CN[C@@H]3CCCS(=O)(=O)N2C3)CCO1` [Example 129, (βR)-4-chloro-β-[(4S)-2,2-dimethyltetrahydro-2H-pyran-4-yl]-N-[(1S,2R)-2-{2-[(6R,9S)-2,2-dioxido-2-thia-1,7-diazabicyclo[4.3.1]dec-9-yl]ethyl}cyclohexyl]-L-phenylalaninamide], the EC50 under setting [1] was found to be 56 nM.

`COC(=O)N[C@H](C(=O)N[C@H]1CCCC[C@@H]1CC[C@H]1CN[C@@H]2CCCS(=O)(=O)N1C2)[C@@H](c1ccc(Cl)cc1)[C@@H]1CCOC(C)(C)C1` [Example 131, methyl [(1S,2R)-2-(4-chlorophenyl)-2-[(4R)-2,2-dimethyltetrahydro-2H-pyran-4-yl]-1-{[(1S,2R)-2-{2-[(6R,9S)-2,2-dioxido-2-thia-1,7-diazabicyclo[4.3.1]dec-9-yl]ethyl}cyclohexyl]carbamoyl}ethyl]carbamate]: the EC50 under setting [1] was 24 nM. With `N[C@H](C(=O)Nc1cccc(F)c1CC[C@H]1CN[C@@H]2CCCS(=O)(=O)N1C2)[C@@H](c1ccc(F)cc1)c1cnc(C(F)(F)F)nc1` [Example 132, (βS)-N-(2-{2-[(6R,9S)-2,2-dioxido-2-thia-1,7-diazabicyclo[4.3.1]dec-9-yl]ethyl)-3-fluorophenyl)-4-fluoro-β-[2-(trifluoromethyl)pyrimidin-5-yl]-L-phenylalaninamide], the EC50 under setting [1] is 15 nM. Same read-out and setting: next, `COC(=O)N[C@@H](C(=O)N[C@H]1CCC[C@@H]1CC[C@H]1CN[C@@H]2CCCS(=O)(=O)N1C2)[C@@H](c1ccc(Cl)cc1)C1CCN(C(=O)OCc2ccccc2)CC1` [Example 137, benzyl 4-{(1R,2R)-1-(4-chlorophenyl)-3-{[(1S,2R)-2-{2-[(6R,9S)-2,2-dioxido-2-thia-1,7-diazabicyclo[4.3.1]dec-9-yl]ethyl}cyclopentyl]amino}-2-[(methoxycarbonyl)amino]-3-oxopropyl}piperidine-1-carboxylate]: 1300 nM.

In the case of `COC(=O)N[C@@H](C(=O)N[C@H]1CCC[C@@H]1CC[C@H]1CN[C@@H]2CCCS(=O)(=O)N1C2)[C@@H](c1ccc(Cl)cc1)C1CCN(C(=O)OC2(C)CC2)CC1` [Example 138, 1-methylcyclopropyl 4-{(1R,2R)-1-(4-chlorophenyl)-3-{[(1S,2R)-2-{2-[(6R,9S)-2,2-dioxido-2-thia-1,7-diazabicyclo[4.3.1]dec-9-yl]ethyl}cyclopentyl]amino}-2-[(methoxycarbonyl)amino]-3-oxopropyl}piperidine-1-carboxylate], the EC50 under setting [1] is 490 nM. For `N[C@H](C(=O)Nc1cc(F)cc(F)c1CC[C@H]1CN[C@@H]2CCCS(=O)(=O)N1C2)[C@@H](c1ccc(Cl)cc1)C1CCOCC1` [Example 143, (βR)-4-chloro-N-(2-{2-[(6R,9S)-2,2-dioxido-2-thia-1,7-diazabicyclo[4.3.1]dec-9-yl]ethyl}-3,5-difluorophenyl)-β-(tetrahydro-2H-pyran-4-yl)-L-phenylalaninamide], the EC50 under setting [1] came to 77 nM. The same measure, in the same setting: with `COC(=O)N[C@H](C(=O)Nc1cc(F)cc(F)c1CC[C@H]1CN[C@@H]2CCCS(=O)(=O)N1C2)[C@@H](c1ccc(Cl)cc1)C1CCOCC1` [Example 144, methyl [(1S,2R)-2-(4-chlorophenyl)-1-[(2-{2-[(6R,9S)-2,2-dioxido-2-thia-1,7-diazabicyclo[4.3.1]dec-9-yl]ethyl}-3,5-difluorophenyl)carbamoyl]-2-(tetrahydro-2H-pyran-4-yl)ethyl]carbamate] the figure was 21 nM. As to `N[C@H](C(=O)N[C@H]1CCCC[C@@H]1CC[C@H]1CN[C@@H]2CCCS(=O)(=O)N1C2)[C@H](c1cncc(F)c1)c1ccc(Cl)c(F)c1` [Example 145, (βS)-4-chloro-N-[(1S,2R)-2-{2-[(6R,9S)-2,2-dioxido-2-thia-1,7-diazabicyclo[4.3.1]dec-9-yl]ethyl}cyclohexyl]-3-fluoro-β-(5-fluoropyridin-3-yl)-L-phenylalaninamide], under setting [1], the EC50 was 76 nM. Turning to `C[C@@H]1C[C@H]([C@H](c2ccc(F)cc2)[C@H](N)C(=O)Nc2c(F)ccc(F)c2CC[C@H]2CN[C@@H]3CCCS(=O)(=O)N2C3)C[C@H](C)O1` [Example 146, (βR)-β-[(2R,4r,6S)-2,6-dimethyltetrahydro-2H-pyran-4-yl]-N-(2-{2-[(6R,9S)-2,2-dioxido-2-thia-1,7-diazabicyclo[4.3.1]dec-9-yl]ethyl}-3,6-difluorophenyl)-4-fluoro-L-phenylalaninamide], the EC50 under setting [1] is 25 nM. In the case of `COC(=O)N[C@H](C(=O)Nc1c(F)ccc(F)c1CC[C@H]1CN[C@@H]2CCCS(=O)(=O)N1C2)[C@@H](c1ccc(F)cc1)[C@H]1C[C@@H](C)O[C@@H](C)C1` [Example 147, methyl [(1S,2R)-2-[(2R,4r,6S)-2,6-dimethyltetrahydro-2H-pyran-4-yl]-1-[(2-{2-[(6R,9S)-2,2-dioxido-2-thia-1,7-diazabicyclo[4.3.1]dec-9-yl]ethyl}-3,6-difluorophenyl)carbamoyl]-2-(4-fluorophenyl)ethyl]carbamate], the EC50 under setting [1] came out at 22 nM. With `CC1(C)C[C@@H]([C@H](c2ccc(F)cc2)[C@H](N)C(=O)N[C@H]2CCCC[C@@H]2CC[C@H]2CN[C@@H]3CCCS(=O)(=O)N2C3)CCO1` [Example 148, (βR)-β-[(4S)-2,2-dimethyhetrahydro-2H-pyran-4-yl]-N-[(1S,2R)-2-{2-[(6R,9S)-2,2-dioxido-2-thia-1,7-diazabicyclo[4.3.1]dec-9-yl]ethyl}cyclohexyl]-4-fluoro-L-phenylalaninamide], the EC50 under setting [1] was determined as 160 nM. For `C[C@@H]1C[C@H]([C@H](c2ccc(F)cc2)[C@H](N)C(=O)N[C@H]2CCCC[C@@H]2CC[C@H]2CN[C@@H]3CCCS(=O)(=O)N2C3)C[C@H](C)O1` [Example 149, (βR)-β-[(2R,4r,6S)-2,6-dimelhyltclrahydro-2H-pyran-4-yl]-N-[(1S,2R)-2-{2-[(6R,9S)-2,2-dioxido-2-thia-1,7-diazabicyclo[4.3.1]dec-9-yl]ethyl}cyclohexyl]-4-fluoro-L-phenylalaninamide], the EC50 under setting [1] came out at 97 nM. Still for that read-out and setting: with `N[C@H](C(=O)N[C@H]1CCCC[C@@H]1CC[C@H]1CN[C@@H]2CCCS(=O)(=O)N1C2)[C@H](c1cncc(C(F)(F)F)c1)c1ccc(Cl)c(F)c1` [Example 150] the figure was 22 nM.
